Patent US9464076B2, “Benzothiophene derivative” (Daiichi Sankyo Company, Limited, priority 2013, dated 2016)
pIC50: −log10 of the molar value. Counter-ions that a name gives are not always drawn.

Legend:
[1] = target: PDE10A (H-PDE10A2, Human Phosphodiesterase 10A2) (Homo sapiens (Human), UniProt Q9Y233); assay: Measurement of PDE10A inhibitory activity-1 (3H-cAMP, recombinant enzyme); format: biochemical; settings: H-PDE10A2, 64 nM cAMP, 25° C., 2 hours
Procedure: To a solution containing 20 mM Tris-HCl (pH 7.5), 1 mM MgCl2, 100 μM EDTA, 330 μg/ml bovine serum albumin, 50 kU/ml 5′-nucleotidase, 0.1 μCi ^3H-cAMP (64 nM cAMP), and PDE10A (H-PDE10A2, Human Phosphodiesterase 10A2, Scottish Biomedical), a test compound was added, and the mixture was reacted at 25° C. for 2 hours. To the reaction solution, QAE-Sephadex (17-0190-01, GE Healthcare Japan Corp.) suspended in 10 mM HEPES-Na (pH 7.0) (hereinafter, also referred to as a “QAE-Sephadex suspension”) was added, and the mixture was shaken for 1 minute and left standing for 5 minutes to obtain a supernatant. To the supernatant, a QAE-Sephadex suspension was further added, and the mixture was shaken for 1 minute and left standing for 5 minutes. Then, the obtained supernatant was transferred to LumaPlate (PerkinElmer, Inc.) and assayed using a radiation counter (TopCount NXT, PerkinElmer, Inc.).
The value of the sample reacted without the addition of both a test compound and PDE10A was defined as 0%, and the value of the sample reacted in the presence of PDE10A without the addition of a test compound was defined as 100%.

PDE10A = PDE10A (Homo sapiens (Human), UniProt Q9Y233); assay: Measurement of PDE10A inhibitory activity-2 (PDE10A fraction prepared from MOLT-4 cells); format: biochemical; settings: PDE10A fraction from MOLT-4 cells (peak around 250 mM NaCl)
Outline: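 Enzyme source was a PDE10A-containing fraction from MOLT-4 cell soluble extract, resolved by HiTrap Q anion exchange with a 0–0.8 M NaCl gradient and selected by cAMP-hydrolysing activity. IC50 determined with this fraction by the same procedure as the preceding PDE10A assay.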

Male C57BL/6 Cr mice = assay: Test on suppression of phencyclidine-induced hyperlocomotion in mice; format: in vivo, mouse; settings: Mus musculus, po, 1 h, locomotor activity, test compound 10 mg/kg oral, phencyclidine 5 mg/kg s.c. approx. 1 hour later, measured for 1 hour
Procedure: Male C57BL/6 Cr mice (Japan SLC, Inc.) (8 weeks old) were used in the experiment. A test compound was suspended at 1 mg/mL in a 0.5% hydroxypropylcellulose solution to prepare a suspension for administration. The suspension of the test compound or a solvent (0.5% hydroxypropylcellulose solution) was orally administered at a dose of 10 mL/kg to each mouse. After the administration, the mouse was immediately placed in a locomotor activity measurement apparatus (Muromachi Kikai Co., Ltd., locomotor activity measurement system SUPERMEX). Approximately 1 hour later, phencyclidine (5 mg/10 mL/kg) or a solvent (10 mL/kg saline) was subcutaneously administered to the mouse. The locomotor activity was measured from immediately after the subcutaneous administration to 1 hour later.
Percent inhibition exceeding 100 means that when the activity of the phencyclidine administration control group was defined as 100, the activity of the group given a test compound was lower than that of the solvent administration control group.

PDE10A, sequence (Q9Y233 whole entry): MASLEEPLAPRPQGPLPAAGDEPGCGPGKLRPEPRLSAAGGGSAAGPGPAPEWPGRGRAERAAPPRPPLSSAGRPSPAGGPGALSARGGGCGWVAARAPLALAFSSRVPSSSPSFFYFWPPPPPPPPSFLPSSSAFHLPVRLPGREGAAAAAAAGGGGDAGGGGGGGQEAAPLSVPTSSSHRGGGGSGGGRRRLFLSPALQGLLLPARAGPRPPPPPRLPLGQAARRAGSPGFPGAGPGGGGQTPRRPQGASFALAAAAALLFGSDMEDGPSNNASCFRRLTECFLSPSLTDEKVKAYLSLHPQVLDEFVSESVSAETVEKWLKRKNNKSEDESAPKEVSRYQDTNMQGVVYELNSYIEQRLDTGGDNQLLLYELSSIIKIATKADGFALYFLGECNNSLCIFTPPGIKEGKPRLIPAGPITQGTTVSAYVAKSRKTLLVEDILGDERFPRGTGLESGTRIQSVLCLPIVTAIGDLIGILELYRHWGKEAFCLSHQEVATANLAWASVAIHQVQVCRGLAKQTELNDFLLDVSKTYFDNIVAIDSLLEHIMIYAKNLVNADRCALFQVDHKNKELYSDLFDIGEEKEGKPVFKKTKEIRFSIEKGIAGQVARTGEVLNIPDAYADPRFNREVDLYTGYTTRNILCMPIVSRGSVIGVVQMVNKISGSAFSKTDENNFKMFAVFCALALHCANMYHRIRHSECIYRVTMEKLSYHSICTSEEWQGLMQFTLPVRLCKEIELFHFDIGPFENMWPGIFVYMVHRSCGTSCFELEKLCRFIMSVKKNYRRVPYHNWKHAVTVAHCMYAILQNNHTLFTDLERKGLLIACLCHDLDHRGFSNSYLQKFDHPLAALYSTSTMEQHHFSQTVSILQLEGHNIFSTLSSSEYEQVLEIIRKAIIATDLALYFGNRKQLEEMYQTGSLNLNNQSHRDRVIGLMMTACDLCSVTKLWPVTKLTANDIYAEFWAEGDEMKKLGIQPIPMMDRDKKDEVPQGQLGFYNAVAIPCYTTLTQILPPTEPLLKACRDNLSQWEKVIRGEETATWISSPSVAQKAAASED
PDE10A (H-PDE10A2, Human Phosphodiesterase 10A2), sequence (Q9Y233 267-1055): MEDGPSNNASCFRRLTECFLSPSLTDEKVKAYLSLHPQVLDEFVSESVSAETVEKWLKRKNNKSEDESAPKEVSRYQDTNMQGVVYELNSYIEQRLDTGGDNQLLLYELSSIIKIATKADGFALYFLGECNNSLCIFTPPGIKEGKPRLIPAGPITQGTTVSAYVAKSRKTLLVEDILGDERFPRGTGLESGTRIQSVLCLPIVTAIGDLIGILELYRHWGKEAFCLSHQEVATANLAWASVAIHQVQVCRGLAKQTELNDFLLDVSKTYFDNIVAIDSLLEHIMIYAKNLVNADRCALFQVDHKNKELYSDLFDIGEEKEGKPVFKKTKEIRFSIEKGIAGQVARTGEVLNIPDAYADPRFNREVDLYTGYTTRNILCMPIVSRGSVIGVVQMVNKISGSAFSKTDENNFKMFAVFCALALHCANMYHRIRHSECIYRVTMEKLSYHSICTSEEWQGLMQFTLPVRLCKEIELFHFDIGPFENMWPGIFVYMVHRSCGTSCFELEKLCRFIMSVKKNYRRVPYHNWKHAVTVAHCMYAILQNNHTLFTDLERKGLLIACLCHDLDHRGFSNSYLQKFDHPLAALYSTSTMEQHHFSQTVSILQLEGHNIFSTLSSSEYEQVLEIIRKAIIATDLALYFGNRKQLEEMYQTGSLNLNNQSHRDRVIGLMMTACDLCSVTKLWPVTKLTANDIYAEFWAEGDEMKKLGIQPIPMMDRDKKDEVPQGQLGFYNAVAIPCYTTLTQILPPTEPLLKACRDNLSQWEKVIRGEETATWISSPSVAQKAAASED

In the case of CC(=O)c1ccc(C(C)=O)c2c(C)c(C(=O)Nc3cc(C(C)(C)O)c4ccccc4n3)sc12 [Example 4, 4,7-Diacetyl-N-(4-(2-hydroxypropan-2-yl)quinolin-2-yl)-3-methylbenzo[b]thiophene-2-carboxamide hydrobromide], the pIC50 ([1]; hydrobromide) was 8.24.

COCc1ccc(C(C)=O)c2sc(C(=O)Nc3ccc4c(C(=O)N5CC(OC)C5)cccc4n3)c(C)c12 [Example 105, 7-Acetyl-N-(5-((3-methoxyazetidin-1-yl)carbonyl)quinolin-2-yl)-4-(methoxymethyl)-3-methylbenzo[b]thiophene-2-carboxamide methanesulfonate] gave a pIC50 ([1]; methanesulfonate) of 8.68.

In the case of COCc1ccc(C(C)=O)c2sc(C(=O)Nc3cc(CN4CC[C@@H](O)C4)c4ccccc4n3)c(C)c12 [Example 40, (R)-7-Acetyl-N-(4-((3-hydroxypyrrolidin-1-yl)methyl)quinolin-2-yl)-4-(methoxymethyl)-3-methylbenzo[b]thiophene-2-carboxamide hydrochloride], the pIC50 ([1]; hydrochloride) was 9.19.

COCc1ccc(C(C)=O)c2sc(C(=O)Nc3ccc4c(CS(C)(=O)=O)cccc4n3)c(C)c12 [Example 111, 7-Acetyl-4-(methoxymethyl)-3-methyl-N-(5-((methylsulfonyl)methyl)quinolin-2-yl)benzo[b]thiophene-2-carboxamide methanesulfonate] showed a pIC50 ([1]; methanesulfonate) of 8.96.

Compound COCc1ccc(C(C)=O)c2sc(C(=O)Nc3ccc4c(C(=O)N5CC(OC)C5)cccc4n3)c(C)c12 [Example 107, 7-Acetyl-N-(5-((3-methoxyazetidin-1-yl)carbonyl)quinolin-2-yl)-4-(methoxymethyl)-3-methylbenzo[b]thiophene-2-carboxamide hydrobromide] has a pIC50 ([1]; hydrobromide) of 9.14.

Compound COCc1ccc(C(C)=O)c2sc(C(=O)Nc3cc(CN4CC[C@@H](O)C4)c4ccccc4n3)c(C)c12 [Example 41, (R)-7-Acetyl-N-(4-((3-hydroxypyrrolidin-1-yl)methyl)quinolin-2-yl)-4-(methoxymethyl)-3-methylbenzo[b]thiophene-2-carboxamide p-toluenesulfonate] has a pIC50 ([1]; p-toluenesulfonate) of 8.89.

COCc1ccc(C(C)=O)c2sc(C(=O)Nc3ccc4c(C(=O)N5CC(OC)C5)cccc4n3)c(C)c12 [Example 104, 7-Acetyl-N-(5-((3-methoxyazetidin-1-yl)carbonyl)quinolin-2-yl)-4-(methoxymethyl)-3-methylbenzo[b]thiophene-2-carboxamide benzenesulfonate] was tested, and the pIC50 ([1]; benzenesulfonate) was 8.66.

CC(=O)c1ccc(C(C)=O)c2c(C)c(C(=O)Nc3cc(C(C)(C)O)c4ccccc4n3)sc12 [Example 5, 4,7-Diacetyl-N-(4-(2-hydroxypropan-2-yl)quinolin-2-yl)-3-methylbenzo[b]thiophene-2-carboxamide semisulfate] gave a pIC50 [1] of 7.96.

COCc1ccc(C(C)=O)c2sc(C(=O)Nc3ccc4c(C(=O)N5CC(OC)C5)cccc4n3)c(C)c12 [Example 103, 7-Acetyl-N-(5-((3-methoxyazetidin-1-yl)carbonyl)quinolin-2-yl)-4-(methoxymethyl)-3-methylbenzo[b]thiophene-2-carboxamide hydrochloride] showed a pIC50 ([1]; hydrochloride) of 9.51.

[2H]C([2H])([2H])OCc1ccc(C(C)=O)c2sc(C(=O)Nc3ccc4c(COC)cccc4n3)c(C)c12 [Example 118, 7-Acetyl-4-((^2H3)methoxymethyl)-N-(5-(methoxymethyl)quinolin-2-yl)-3-methylbenzo[b]thiophene-2-carboxamide] was tested, and the pIC50 (PDE10A) was 9.12 and the inhibition in vivo at 10 mg/kg (Male C57BL/6 Cr mice) was 77%.

With COCc1ccc(C(C)=O)c2sc(C(=O)Nc3cc(CN4CCOCC4)c4ccccc4n3)c(C)c12 [Example 44, 7-Acetyl-4-(methoxymethyl)-3-methyl-N-(4-(morpholinomethyl)quinolin-2-yl)benzo[b]thiophene-2-carboxamide] the pIC50 (PDE10A) was 8.68 and the inhibition in vivo at 10 mg/kg (Male C57BL/6 Cr mice) was 104%.

With COCc1ccc(C(C)=O)c2sc(C(=O)Nc3ccc4c(CN5CC(O)C5)cccc4n3)c(C)c12 [Example 65, 7-Acetyl-N-(5-((3-hydroxyazetidin-1-yl)methyl)quinolin-2-yl)-4-(methoxymethyl)-3-methylbenzo[b]thiophene-2-carboxamide dihydrochloride] the pIC50 (PDE10A) was 9.41 and the inhibition in vivo at 10 mg/kg (Male C57BL/6 Cr mice) was 37%.

Compound CC(=O)c1ccc(C(C)=O)c2c(C)c(C(=O)Nc3cc(C(C)(C)O)c4ccccc4n3)sc12 [Example 3, 4,7-Diacetyl-N-(4-(2-hydroxypropan-2-yl)quinolin-2-yl)-3-methylbenzo[b]thiophene-2-carboxamide hydrochloride] has a pIC50 ([1]; hydrochloride) of 8.23.

COCc1ccc(C(C)=O)c2sc(C(=O)Nc3ccc4c(CS(C)(=O)=O)cccc4n3)c(C)c12 [Example 109, 7-Acetyl-4-(methoxymethyl)-3-methyl-N-(5-((methylsulfonyl)methyl)quinolin-2-yl)benzo[b]thiophene-2-carboxamide] showed a pIC50 [1] of 9.21.

In the case of COCc1ccc(C(C)=O)c2sc(C(=O)Nc3cc(C(C)(C)O)c4ccccc4n3)c(C)c12 [Example 28, 7-Acetyl-N-(4-(2-hydroxypropan-2-yl)quinolin-2-yl)-4-(methoxymethyl)-3-methylbenzo[b]thiophene-2-carboxamide hydrobromide], the pIC50 ([1]; hydrobromide) was 8.70.

With COCc1ccc(C(C)=O)c2sc(C(=O)Nc3cc(CN4CC(O)C4)c4ccccc4n3)c(C)c12 [Example 47, 7-Acetyl-N-(4-((3-hydroxyazetidin-1-yl)methyl)quinolin-2-yl)-4-(methoxymethyl)-3-methylbenzo[b]thiophene-2-carboxamide dihydrochloride] the pIC50 (PDE10A) was 9.31 and the inhibition in vivo at 10 mg/kg (Male C57BL/6 Cr mice) was 73%.

With COCc1ccc(C(C)=O)c2sc(C(=O)Nc3ccc4c(COC(=O)CN)cccc4n3)c(C)c12 [Example 85, (2-(7-Acetyl-4-(methoxymethyl)-3-methylbenzo[b]thiophene-2-carboxamido)quinolin-5-yl)methyl-2-aminoacetate] the pIC50 (PDE10A) was 8.96 and the inhibition in vivo at 10 mg/kg (Male C57BL/6 Cr mice) was 85%.

With COCc1cccc2nc(NC(=O)c3sc4c(C(C)=O)ccc(COC)c4c3C)ccc12 [Example 67, 7-Acetyl-4-(methoxymethyl)-N-(5-(methoxymethyl)quinolin-2-yl)-3-methylbenzo[b]thiophene-2-carboxamide] the pIC50 [1] was 8.74.

COCc1ccc(C(C)=O)c2sc(C(=O)Nc3ccc4c(C(C)O)cccc4n3)c(C)c12 (centres unmarked) [Example 76, 7-Acetyl-N-(5-(1-hydroxyethyl)quinolin-2-yl)-4-(methoxymethyl)-3-methylbenzo[b]thiophene-2-carboxamide] gave a pIC50 (PDE10A) of 9.28 and an inhibition in vivo at 10 mg/kg (Male C57BL/6 Cr mice) of 102%.

For COCc1ccc(C(C)=O)c2sc(C(=O)Nc3cc(C(C)(C)O)c4ccccc4n3)c(C)c12 [Example 27, 7-Acetyl-N-(4-(2-hydroxypropan-2-yl)quinolin-2-yl)-4-(methoxymethyl)-3-methylbenzo[b]thiophene-2-carboxamide hydrochloride], the pIC50 ([1]; hydrochloride) was 8.80.

COCc1ccc(C(C)=O)c2sc(C(=O)Nc3ccc4c(CN5CC[C@H](O)C5)cccc4n3)c(C)c12 [Example 63, (S)-7-Acetyl-N-(5-((3-hydroxypyrrolidin-1-yl)methyl)quinolin-2-yl)-4-(methoxymethyl)-3-methylbenzo[b]thiophene-2-carboxamide dihydrochloride] was tested, and the pIC50 (PDE10A) was 8.96 and the inhibition in vivo at 10 mg/kg (Male C57BL/6 Cr mice) was 84%.

In the case of CCc1c(C(=O)Nc2cc(CN3CC[C@@H](O)C3)c3ccccc3n2)sc2c(C(C)=O)ccc(COC)c12 [Example 42, (R)-7-Acetyl-3-ethyl-N-(4-((3-hydroxypyrrolidin-1-yl)methyl)quinolin-2-yl)-4-(methoxymethyl)benzo[b]thiophene-2-carboxamide], the pIC50 (PDE10A) was 9.04 and the inhibition in vivo at 10 mg/kg (Male C57BL/6 Cr mice) was 85%.

Compound COCc1ccc(C(C)=O)c2sc(C(=O)Nc3ccc4c(CN5CC(OC)C5)cccc4n3)c(C)c12 [Example 66, 7-Acetyl-N-(5-((3-methoxyazetidin-1-yl)methyl)quinolin-2-yl)-4-(methoxymethyl)-3-methylbenzo[b]thiophene-2-carboxamide] has a pIC50 (PDE10A) of 8.92 and an inhibition in vivo at 10 mg/kg (Male C57BL/6 Cr mice) of 91%.
